# Data reported in patent US3933918A, “2-Allyloxy-4-chloro-acetophenone” (Kyowa Hakko Kogyo Co., Ltd., priority 1973, dated 1976).
# Counter-ions that a name gives are not always drawn.
# How the values were obtained:
# [1] = tested on: pulmonary stretch receptor; experiment: Effect on the pulmonary stretch receptor impulses in guinea pigs; assay type: in vivo, guinea pig; conditions: for Time required to return to the level before treatment with drug / Change of voltage of stretch receptor impulses (as compared with that before treatment with drug): reduced to / Change of voltage of stretch receptor impulses (as compared with that before treatment with drug): guinea pig
# Source text: b. Effect on the pulmonary stretch receptor impulses
# Five guinea pigs weighing 400-600 g are used. The animals are anesthetized by subcutaneous injection of 1.2 g/kg of urethane and disposed in a supine position. The chest is opened under artificial ventilation. The left vagus nerve is sectioned at the cervical region and the peripheral stumps is placed on a bipolar platinum electrode. The impulses from the pulmonary stretch receptors are observed on an oscilloscope and recorded with a long-recording camera.
# The animals are given graded doses of the hydrochloride of 2-allyloxy-4-chloro-β-piperidinopropiophenone by intravenous injection.
# The action of the compound on a peripheral nerve is determined by the change of the voltage of the stretch receptor impulses.
# As a control, the same test is conducted using benzonatate which is known as a peripherally acting antitussive.
# [2] = Acute toxicity in rats, determined as LD50; conditions: in vivo, po; rat, P.O., observed one week
# Experimental: (§1) Acute Toxicity in Mice and in Rats -- Determined as LD50
# c. More than 5 groups of male Wistar strain rats, each consisting of 15 animals weighing 110-150 g are used. The animals are given graded doses of the test compound and the standard compound orally and are observed for one week.
# (§2) The LD50 is calculated according to the method of Litchfield and Wilcoxon [J. Pharmacol. & Exper. Therap. 96, 99 (1949)].
# [3] = tested on: coughs induced by electrical stimulation of central stump of the superior laryngeal nerve; experiment: Antitussive effect on coughs induced by electrical stimulation of central stump of the superior laryngeal nerve in anesthetized cats; assay type: in vivo; conditions: Felis catus, iv, cat, i.v., fiducial limits (P = 0.05), read-out: AtD50 (50% antitussive dose)
# Experimental: More than 4 groups of cats, each consisting of 6 animals of either sex weighing 2-3 kg are used. The animals are lightly anesthetized by intraperitoneal injection of 20 mg/kg of pentobarbital sodium. The test is conducted according to the method of Domenjoz (Arch. Exp. Path. u. Pharmakol, 215, 19 (1952)].
# The changes of inner pressure of the trachea brought about by coughs are recorded. The animals are given graded doses of the test compound or the standard compound by intravenous injection.
# The antitussive effect of the compounds is determined by the changes in both the amplitude and frequency of the cough curves and the duration of the changes. When the amplitude and/or the frequency of the coughs induced by a stimulus of moderate intensity are decreased by more than 20% as compared with those before administration of the drug and when the decrease lasts for more than 20 minutes, the effect is determined to be significant. On the basis of the criteria of evaluation, the AtD50 is calculated according to the method of Lichfield and Wilcoxon.
# [4] = Acute toxicity in mice, determined as LD50; conditions: in vivo, mouse; for LD50 at 168 h: po, P.O., observed one week; for LD50 at 72 h: sc, S.C., observed 72 hours
# Experimental: as §1
# a. More than 5 groups of male ddy-strain mice, each consisting of 10 animals weighing 18-20 g are used. The animals are given graded doses of the test compound or the standard compound by subcutaneous injection and are observed for 72 hours.
# b. More than 6 groups of male dd-strain mice, each consisting of 20 animals weighing 18-20 g are used. The animals are given graded doses of the test compound or the standard compound orally and are observed for one week.
# as §2
# [5] = tested on: coughs induced by mechanical stimulation of the tracheal mucosa; experiment: Antitussive effect on coughs induced by mechanical stimulation of the tracheal mucosa in dogs ("Coughing dog" method); assay type: in vivo; conditions: for ED50: Canis lupus familiaris, iv, dog, mechanical stimulation, i.v., fiducial limits (P = 0.05), read-out: AtD50 (50% antitussive dose)
# Experimental: a. Effect on coughs induced by mechanical stimulation of the tracheal mucosa in dogs
# More than 4 groups of dogs, each consisting of 5 animals of either sex weighing 6-10 kg are used. The test is conducted according to "Coughing dog" method [Jap. J. Pharmacol. 2, 7-13 (1952); Pharm. Bull. (Japan) 2 298 (1954); and Jap. J. Pharmacol. 4 130 (1955)]. Coughs are induced by mechanical stimulation with a bristle stimulator made of pig bristles on the tracheal bifurcation through a chronically-built tracheal fistula.
# Stimulation is applied by constantly and intensely moving the stimulator up and down 10 times for 20 seconds and the stimulation is repeated every 5 minutes. The changes of the inner pressure of the trachea brought about by coughs are recorded on a smoked paper. The animals are given graded doses of the test compound or the standard compound by intravenous injection.
# The antitussive effect of the compounds is determined by the changes in both the amplitude and frequency of the cough curves on the smoked paper and the duration of such changes. When the amplitude and/or the frequency are decreased by more than 20% as compared with those before administration of the drug and when the decrease lasts for more than 20 minutes, the effect is determined to be significant. On the basis of the criteria of evaluation, the 50% antitussive dose (hereinafter referred to as AtD50) is calculated according to the method of Litchfield and Wilcoxon.
# [6] = tested on: coughs induced by mechanical stimulation of the tracheal mucosa; experiment: Antitussive effect on coughs induced by mechanical stimulation of the tracheal mucosa in anesthetized cats ("Coughing cat" method); assay type: in vivo; conditions: for ED50: Felis catus, iv, cat, mechanical stimulation, i.v., fiducial limits (P = 0.05), read-out: AtD50 (50% antitussive dose)
# Experimental: b. Effect on coughs induced by mechanical stimulation of the tracheal mucosa in anesthetized cats
# More than 4 groups of cats, each consisting of 6 animals of either sex weighing 2-3 kg are used. The animals are lightly anesthetized by intraperitoneal injection of 20 mg/kg of pentobarbital sodium. The test is conducted according to "Coughing cat" method [Folia Pharmacol japon. 55 99 (1959)].
# Coughs are induced in the same manner as described above except that a bristle stimulator made of whiskers of rabbit is used. The AtD50 is calculated in the same manner as described above.
# [7] = tested on: coughs induced by mechanical stimulation on the mucosa of the tracheal bifurcation; experiment: Comparison of equi-active antitussive doses for various routes of administration in anesthetized dogs; assay type: in vivo, dog; conditions: for Site of antitussive action: central nerve: conclusion in words; for Dose giving nearly the same antitussive effect: dog
# Experimental: a. Comparison of equi-active doses for various routes of administration
# Five dogs weighing 8-10 kg are used. Polyethylene tubes are previously installed in the animals in the femoral vein, the vertebral artery and the cerebello-medullary cistern. The animals are lightly anesthetized by intraperitoneal injection of 20 mg/kg of pentobarbital sodium. The hydrochloride of 2-allyloxy-4-chloro-β-piperidinopropiophenone is given through the polyethylene tubes. Coughs are induced by mechanical stimulation on the mucosa of the tracheal bifurcation. The doses necessary to obtain the same degree of antitussive effect as that obtained by the administration through the femoral vein are determined.
smiles,measurement,setting,value
C=CCOc1cc(Cl)ccc1C(=O)CCN1CCCCC1 [2-Allyloxy-4-Chloro-β-Piperidinopropiophenone Hydrochloride],Time required to return to the level before treatment with drug,"[1]; i.v., 5.0 mg/kg",10 to 20 min
same,Change of voltage of stretch receptor impulses (as compared with that before treatment with drug): reduced to,"[1]; i.v., 10.0 mg/kg",1/2
same,Time required to return to the level before treatment with drug,"[1]; i.v., 10.0 mg/kg",~30 min
same,Change of voltage of stretch receptor impulses (as compared with that before treatment with drug),"[1]; i.v., 1.0-2.0 mg/kg",none
same,Effect on the impulses of the pulmonary stretch receptor,[1]; statement in words,repress the impulses of the pulmonary stretch receptor
same,LD50 at 168 h,[2],1020 mg/kg
same,ED50,[3],4.2 mg/kg
same,LD50 at 168 h,[4],240 mg/kg
same,LD50 at 72 h,[4],105 mg/kg
same,ED50,[5],3.3 mg/kg
same,Antitussive effect compared with codeine phosphate,"[5]; dogs, statement in words",antitussive effect equal to codeine phosphate
same,ED50,[6],4.8 mg/kg
same,Antitussive effect compared with codeine phosphate,"[6]; cats, statement in words",antitussive effect equal to codeine phosphate
same,Site of antitussive action: central nerve,[7]; Hydrochloride,exerts its action on the central nerve
same,Dose giving nearly the same antitussive effect,[7]; cerebello-medullary cistern,0.06 to 0.1 mg/kg
same,Dose giving nearly the same antitussive effect,[7]; femoral vein,4.30 mg/kg
same,Dose giving nearly the same antitussive effect,[7]; vertebral artery,0.4 to 0.8 mg/kg
same,Ratio of effective doses for the three routes compared with codeine,[7]; statement in words,almost the same as that obtained by using codeine
C=CCOc1cc(Cl)ccc1C(=O)CCN1CCCCC1 [2-allyloxy-4-chloro-β-piperidinopropiophenone],Site of antitussive action: peripheral nerves,[1]; conclusion in words,exerts a considerable action on peripheral nerves
same,Site of antitussive action: central nerve,[7],acts centrally
CCCCNc1ccc(C(=O)OCCOCCOCCOCCOCCOCCOCCOCCOCCOC)cc1 [Benzonatate],Change of voltage of stretch receptor impulses (as compared with that before treatment with drug): reduced to,[1]; 1.0 mg/kg,3/4
same,Time required to return to the level before treatment with drug,[1]; 1.0 mg/kg,10 min
same,Change of voltage of stretch receptor impulses (as compared with that before treatment with drug): reduced to,[1]; 2.0 mg/kg,1/2
same,Time required to return to the level before treatment with drug,[1]; 2.0 mg/kg,30 min
same,Change of voltage of stretch receptor impulses (as compared with that before treatment with drug): reduced to,[1]; 4.0 mg/kg,zero
same,Time required to return to the level before treatment with drug,[1]; 4.0 mg/kg,30 to 40 min
same,Change of voltage of stretch receptor impulses (as compared with that before treatment with drug),[1]; 0.1-0.5 mg/kg,none
"COc1ccc2c3c1O[C@H]1[C@@H](O)C=C[C@H]4[C@@H](C2)N(C)CC[C@@]341 [Codeine phosphate, reference compound]",LD50 at 168 h,[2],807 mg/kg
same,ED50,[3],2.1 mg/kg
same,LD50 at 168 h,[4],729 mg/kg
same,LD50 at 72 h,[4],191 mg/kg
same,ED50,[5],2.5 mg/kg
same,ED50,[6],2.3 mg/kg
